Literature values, collected in patent US6703022B2, “Composition and method useful for treating colic” (Lev Laboratories, Inc., priority 1999, dated 2004).

Test system: mice
Details: at certain doses

For C=CCc1ccc(OC)cc1 [Estragole, 1-allyl-4-methoxybenzene], the “mutagenic and carcinogenic effects” value is listed as “mutagenic and carcinogenic effects”.
